According to patent US10294234B2, “HIV inhibitor compounds” (priority 2017, dated 2019):
Read-outs that look alike come from different tables or passages of the source.

Assays:
[1] = tested on: HIV-1 (IIIB) in MT-4 cells; assay: MT-4 HIV assay; assay type: cell-based; details: Human immunodeficiency virus 1, MT4, 120 h; HIV-1 (IIIB), MT-4 cells, 5 days, Cell Titer Glo; read-out: EC50
How it was run: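 MT-4 cells infected with HIV-1 IIIB (1:250 stock dilution) were incubated with 1:3 serially diluted compounds in RPMI with 10% FBS for 5 days at 37 °C. Cell Titer Glo luminescence was the readout. Plates included mock-infected wells, no-drug wells and 5 uM AZT controls.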

[2] = How it was run: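 Dog, rat and human liver microsomes (0.5 mg/mL) with NADPH-regenerating cofactor; test compound 1 uM, duplicates. Timepoints 2, 12, 25, 45, 65 min; protein removed by centrifugation, supernatant analysed by LC/MS/MS. Clint from t1/2.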

SMILES	EC50 [1]	Human Pred Cl. ([2]; human, microsomes)	Rat. Pred. Cl. ([2]; rat, microsomes)	Human Pred Cl. ([2]; human liver microsomes 0.5 mg/mL, 1 uM compound, NADPH)	Rat. Pred. Cl. ([2]; rat liver microsomes 0.5 mg/mL, 1 uM compound, NADPH)
COC(=O)N[C@H](C(=O)N[C@@H](Cc1ccc(-c2cnc(N3CC4CCC(C3)N4C3COC3)nc2)cc1)[C@@H](O)CN(Cc1c(F)cc(-c2ncccn2)cc1F)NC(=O)[C@@H](NC(=O)OC)C(C)(C)C(F)(F)F)C(C)(C)C(F)(F)F [Example 201, Methyl ((5S,8S,9S,14S)-11-(2,6-difluoro-4-(pyrimidin-2-yl)benzyl)-16,16,16-trifluoro-9-hydroxy-15,15-dimethyl-8-(4-(2-(8-(oxetan-3-yl)-3,8-diazabicyclo [3.2.1]octan-3-yl)pyrimidin-5-yl)benzyl)-3,6,13-trioxo-5-(1,1,1-trifluoro-2-methylpropan-2-yl)-2-oxa-4,7,11,12-tetraazahexadecan-14-yl)carbamate]	2.67 nM	0.27 L/H/kg	0.49 L/H/kg		
COC(=O)N[C@H](C(=O)N[C@@H](Cc1ccc(C#Cc2ccc(N3C4CCC3CN(C3COC3)C4)nc2)cc1)[C@@H](O)CN(Cc1c(F)cc(-c2cnn(C(F)F)c2)cc1F)NC(=O)[C@@H](NC(=O)OC)C(C)(C)C(F)(F)F)C(C)(C)C(F)(F)F [Example 19, methyl ((5S,8S,9S,14S)-11-(4-(1-(difluoromethyl)-1H-pyrazol-4-yl)-2,6-difluorobenzyl)-16,16,16-trifluoro-9-hydroxy-15,15-dimethyl-8-(4-((6-(3-(oxetan-3-yl)-3,8-diazabicyclo[3.2.1]octan-8-yl)pyridin-3-yl)ethynyl)benzyl)-3,6,13-trioxo-5-(1,1,1-trifluoro-2-methylpropan-2-yl)-2-oxa-4,7,11,12-tetraazahexadecan-14-yl)carbamate]	8.43 nM	<0.11 L/H/kg	0.29 L/H/kg		
COC(=O)N[C@H](C(=O)N[C@@H](Cc1ccc(C#Cc2ccc(N3C4CC3CN(C3COC3)C4)nc2)cc1)[C@@H](O)CN(Cc1c(F)cc(-c2cnn(C(F)F)c2)cc1F)NC(=O)[C@@H](NC(=O)OC)C(C)(C)C(F)(F)F)C(C)(C)C(F)(F)F [Example 59, Methyl ((5S,8S,9S,14S)-11-(4-(1-(difluoromethyl)-1H-pyrazol-4-yl)-2,6-difluorobenzyl)-16,16,16-trifluoro-9-hydroxy-15,15-dimethyl-8-(4-((6-(3-(oxetan-3-yl)-3,6-diazabicyclo[3.1.1]heptan-6-yl)pyridin-3-yl)ethynyl)benzyl)-3,6,13-trioxo-5-(1,1,1-trifluoro-2-methylpropan-2-yl)-2-oxa-4,7,11,12-tetraazahexadecan-14-yl)carbamate]	3.38 nM	0.6 L/H/kg	0.83 L/H/kg		
COC(=O)N[C@H](C(=O)N[C@@H](Cc1ccc(C#Cc2ccc(N3CC4CCC(C3)N4C3COC3)nc2)cc1)[C@@H](O)CN(Cc1c(F)cc(-c2ccn(C(F)F)n2)cc1F)NC(=O)[C@@H](NC(=O)OC1COC1)C(C)(C)C)C(C)(C)C(F)(F)F [Example 184, methyl ((2S)-1-(((2S,3S)-4-(1-(4-(1-(difluoromethyl)-1H-pyrazol-3-yl)-2,6-difluorobenzyl)-2-((S)-3,3-dimethyl-2-(((oxetan-3-yloxy)carbonyl)amino)butanoyl)hydrazinyl)-3-hydroxy-1-(4-((6-(8-(oxetan-3-yl)-3,8-diazabicyclo[3.2.1]octan-3-yl)pyridin-3-yl)ethynyl)phenyl)butan-2-yl)amino)-4,4,4-trifluoro-3,3-dimethyl-1-oxobutan-2-yl)carbamate]	3.66 nM	<0.11 L/H/kg	<0.18 L/H/kg		
COC(=O)N[C@H](C(=O)N[C@@H](Cc1ccc(C#Cc2ccc(N3CC4CCC(C3)N4C(=O)[C@@H]3CCCO3)nc2)cc1)[C@@H](O)CN(Cc1c(F)cc(-c2cnn(C(F)F)c2)cc1F)NC(=O)[C@@H](NC(=O)OC)C(C)(C)C(F)(F)F)C(C)(C)C(F)(F)F [Example 18, Methyl ((5S,8S,9S,14S)-11-(4-(1-(difluoromethyl)-1H-pyrazol-4-yl)-2,6-difluorobenzyl)-16,16,16-trifluoro-9-hydroxy-15,15-dimethyl-3,6,13-trioxo-8-(4-((6-(8-((S)-tetrahydrofuran-2-carbonyl)-3,8-diazabicyclo[3.2.1]octan-3-yl)pyridin-3-yl)ethynyl)benzyl)-5-(1,1,1-trifluoro-2-methylpropan-2-yl)-2-oxa-4,7,11,12-tetraazahexadecan-14-yl)carbamate]	5 nM	0.13 L/H/kg	1.03 L/H/kg		
COC(=O)N[C@H](C(=O)N[C@@H](Cc1ccc(C#Cc2cnc(N3CC4CCC(C3)N4C3COC3)cn2)cc1)[C@@H](O)CN(Cc1c(F)cc(-c2ccn(C(F)F)n2)cc1F)NC(=O)[C@@H](NC(=O)OC)C(C)(C)C(F)(F)F)C(C)(C)C(F)(F)F [Example 50, Methyl ((5S,8S,9S,14S)-11-(4-(1-(difluoromethyl)-1H-pyrazol-3-yl)-2,6-difluorobenzyl)-16,16,16-trifluoro-9-hydroxy-15,15-dimethyl-8-(4-((5-(8-(oxetan-3-yl)-3,8-diazabicyclo[3.2.1]octan-3-yl)pyrazin-2-yl)ethynyl)benzyl)-3,6,13-trioxo-5-(1,1,1-trifluoro-2-methylpropan-2-yl)-2-oxa-4,7,11,12-tetraazahexadecan-14-yl)carbamate]	4.31 nM	<0.11 L/H/kg	<0.18 L/H/kg		
COC(=O)N[C@H](C(=O)N[C@@H](Cc1ccc(C#Cc2ccc(N3CC4CCC(C3)N4C3COC3)nc2)cc1)[C@@H](O)CN(Cc1c(F)cc(-c2cc(OC3COC3)ccn2)cc1F)NC(=O)[C@@H](NC(=O)OC)C(C)(C)C(F)(F)F)C(C)(C)C(F)(F)F [Example 127, Methyl ((5S,8S,9S,14S)-11-(2,6-difluoro-4-(4-(oxetan-3-yloxy)pyridin-2-yl)benzyl)-16,16,16-trifluoro-9-hydroxy-15,15-dimethyl-8-(4-((6-(8-(oxetan-3-yl)-3,8-diazabicyclo[3.2.1]octan-3-yl)pyridin-3-yl)ethynyl)benzyl)-3,6,13-trioxo-5-(1,1,1-trifluoro-2-methylpropan-2-yl)-2-oxa-4,7,11,12-tetraazahexadecan-14-yl)carbamate]	4.19 nM	0.54 L/H/kg	1.3 L/H/kg		
COC(=O)N[C@H](C(=O)NN(Cc1c(F)cc(-c2cn(C(F)F)cn2)cc1F)C[C@H](O)[C@H](Cc1ccc(C#Cc2ccc(N3CC4CCC(C3)N4C3COC3)nc2)cc1)NC(=O)[C@@H](NC(=O)OC)C(C)(C)C(F)(F)F)C(C)(C)C [Example 77, Methyl ((5S,8S,9S,14S)-11-(4-(1-(difluoromethyl)-1H-imidazol-4-yl)-2,6-difluorobenzyl)-9-hydroxy-15,15-dimethyl-8-(4-((6-(8-(oxetan-3-yl)-3,8-diazabicyclo [3.2.1]octan-3-yl)pyridin-3-yl)ethynyl)benzyl)-3,6,13-trioxo-5-(1,1,1-trifluoro-2-methylpropan-2-yl)-2-oxa-4,7,11,12-tetraazahexadecan-14-yl)carbamate]	2.49 nM	<0.11 L/H/kg	0.25 L/H/kg		
COC(=O)N[C@H](C(=O)N[C@@H](Cc1ccc(C#Cc2cnc(N3CC4CCC(C3)N4C3COC3)cc2C)cc1)[C@@H](O)CN(Cc1c(F)cc(-c2cnn(C(F)F)c2)cc1F)NC(=O)[C@@H](NC(=O)OC)C(C)(C)C(F)(F)F)C(C)(C)C(F)(F)F [Example 154, Methyl ((5S,8S,9S,14S)-11-(4-(1-(difluoromethyl)-1H-pyrazol-4-yl)-2,6-difluorobenzyl)-16,16,16-trifluoro-9-hydroxy-15,15-dimethyl-8-(4-((4-methyl-6-(8-(oxetan-3-yl)-3,8-diazabicyclo[3.2.1]octan-3-yl)pyridin-3-yl)ethynyl)benzyl)-3,6,13-trioxo-5-(1,1,1-trifluoro-2-methylpropan-2-yl)-2-oxa-4,7,11,12-tetraazahexadecan-14-yl)carbamate]	4.81 nM	<0.11 L/H/kg	<0.18 L/H/kg		
COC(=O)N[C@H](C(=O)N[C@@H](Cc1ccc(C#Cc2cnc(N3C[C@H]4C[C@@H]3CN4C3COC3)nc2)cc1)[C@@H](O)CN(Cc1c(F)cc(-c2ccn(C3CC3)n2)cc1F)NC(=O)[C@@H](NC(=O)OC)C(C)(C)C(F)(F)F)C(C)(C)C(F)(F)F [Example 31, Methyl ((5S,8S,9S,14S)-11-(4-(1-cyclopropyl-1H-pyrazol-3-yl)-2,6-difluorobenzyl)-16,16,16-trifluoro-9-hydroxy-15,15-dimethyl-8-(4-((2-((1R,4R)-5-(oxetan-3-yl)-2,5-diazabicyclo[2.2.1]heptan-2-yl)pyrimidin-5-yl)ethynyl)benzyl)-3,6,13-trioxo-5-(1,1,1-trifluoro-2-methylpropan-2-yl)-2-oxa-4,7,11,12-tetraazahexadecan-14-yl)carbamate]	3.06 nM			<0.11 L/H/kg	0.75 L/H/kg
